Literature values as cited in article PMC11208559 (Scientific Reports, 2024).

Details: cited from earlier work

C=CCNC1=C2C[C@@H](C)C[C@H](OC)[C@H](O)[C@@H](C)/C=C(\C)[C@H](OC(N)=O)[C@@H](OC)/C=C\C=C(/C)C(=O)NC(=CC1=O)C2=O [17-AAG]
tolerability in clinical trials: liver toxicity
